# Test results as given in patent US5573936A, “Process for purifying echinocandin B deacylase” (Eli Lilly and Company, priority 1995, dated 1996).
# *1 amine or outer side, *2 acyl side, *3 side chain or, on linkers, in order; H or OH if unused. Where a SMILES comes first, the peptide text is derived from it. Bridges are numbered along the chain shown (N, C = ends). [ ]: non-standard residue; d: D form. The star is where a group is joined. ξ: configuration not given here. ξOrn(4,5-diOH) = O=C(C(CC(O)C(O)N[*:3])N[*:1])[*:2]; ξhTyr(βξ-OH,γξ-OH) = NC(C(=O)O)C(O)C(O)c1ccc(O)cc1; ξPro(3ξ-OH,4ξ-Me) = CC1CNC(C(=O)O)C1O; X2 = O=C(C=Cc1ccc(N[*:1])cc1)[*:2]; Palmitoyl = CCCCCCCCCCCCCCCC(=O)*; X6 = O=C(Cc1ccc(N[*:1])cc1)[*:2]; X3 = CCCCCCCCOc1ccc(CC(=O)*)cc1; X5 = CCCCCCCOc1ccc(CCC(=O)*)cc1; X1 = CCCCCC=CCC=CCCCCCCCC(=O)*; X4 = CCCCCOc1ccc(CCC(=O)*)cc1; Hyp = O=C(O)[CH]1C[CH](O)CN1; Lauroyl = CCCCCCCCCCCC(=O)*; 4Abz = Nc1ccc(C(=O)O)cc1
# Molecular target: T1, ECB deacylase (Actinoplanes utahensis, UniProt P29958)
# T1 construct: ECB deacylase is an 81-kilodalton (KD) heterodimer comprising 63-KD and 18 KD subunits; made in house; host or cells: Actinoplanes utahensis (native producer, not recombinant); enzyme solubilized from whole cells with salt and purified
# T1 sequence (P29958 230-786 limits assumed): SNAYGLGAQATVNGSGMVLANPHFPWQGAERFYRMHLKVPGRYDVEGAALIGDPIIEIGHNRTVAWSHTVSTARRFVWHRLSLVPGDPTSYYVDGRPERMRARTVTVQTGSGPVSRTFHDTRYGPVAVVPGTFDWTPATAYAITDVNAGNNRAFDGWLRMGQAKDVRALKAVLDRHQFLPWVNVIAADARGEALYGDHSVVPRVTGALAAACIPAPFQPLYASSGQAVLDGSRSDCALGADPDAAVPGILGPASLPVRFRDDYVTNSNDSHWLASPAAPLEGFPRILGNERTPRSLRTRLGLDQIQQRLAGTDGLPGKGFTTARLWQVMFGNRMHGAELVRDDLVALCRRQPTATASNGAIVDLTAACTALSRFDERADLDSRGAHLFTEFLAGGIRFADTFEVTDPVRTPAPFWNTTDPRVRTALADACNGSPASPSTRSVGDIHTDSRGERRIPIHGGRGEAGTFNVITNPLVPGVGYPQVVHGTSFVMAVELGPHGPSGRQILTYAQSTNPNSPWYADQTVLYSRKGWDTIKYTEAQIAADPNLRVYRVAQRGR
# T1 sequence (P29958 35-214 limits assumed): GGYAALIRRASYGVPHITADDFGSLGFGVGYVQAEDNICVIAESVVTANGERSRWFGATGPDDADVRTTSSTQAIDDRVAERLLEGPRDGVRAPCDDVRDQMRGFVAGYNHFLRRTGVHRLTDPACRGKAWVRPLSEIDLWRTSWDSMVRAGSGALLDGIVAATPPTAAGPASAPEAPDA
# Assay: ECB deacylase assay (formation of ECB nucleus by HPLC)
# Type: biochemical
# Settings: for percent activity relative to the deacylase activity of 100% for ECB itself: substrate specificity
# Protocol: The assay employed herein for determining and measuring deacylase activity utilizes echinocandin B as substrate. A typical reaction mixture of 1 ml for ECB deacylase assay contained […] of ECB and 0.000003 to 0.003 unit of the enzyme in 0.05M KH2 PO4, pH 6.0, in the presence of 0.68M KCl and 15% DMSO to effect solution of the ECB. The enzymatic reaction was initiated by addition of the enzyme and was continued for 20 min at 60° C. before being interrupted by the addition of phosphoric acid. After a low-speed centrifugation to remove precipitated protein, the deacylase activity was determined by monitoring the formation of ECB nucleus at 225 nm using HPLC.
# HPLC components were IBM PS/2 Model 80 and Color Display (IBM, Armonk, N.Y.), a Water 715 Ultra WISP Sample Processor (Waters Associates, Milford, Mass.), and a Beckman System Gold Programmable Solvent Module 126 and Scanning Detector Module 167 (Beckman, Fullerton, Calif.).
# The ECB nucleus was eluted from an Apex Octadecyl 3 μ column (4.6×10 cm) (Jones Chromatography, Littleton, Co.) with a mobile phase of 3.9% CH3 CN/0.1% trifluoroacetic acid and a flow rate of 1 ml/min. The nucleus formation was linear with time during the assays. […] As used herein one unit of enzyme activity is defined as the amount of the deacylase required to cause formation of one μmole of the ECB nucleus per minute from ECB under the above described reaction conditions.
Compound,percent activity relative to the deacylase activity of 100% for ECB itself (purified deacylase) [%],substrate of the purified deacylase (in words) (purified deacylase),other results
"CCCCCCCCCCCC(=O)Nc1ccc(C=CC(=O)NC2CC(O)C(O)NC(=O)C3C(O)C(C)CN3C(=O)C(C(C)O)NC(=O)C(C(O)C(O)c3ccc(O)cc3)NC(=O)C3CC(O)CN3C(=O)C(C(C)O)NC2=O)cc1 (stereo not drawn) (Lauroyl-[X2][ξOrn(4,5-diOH)]T[Hyp][ξhTyr(βξ-OH,γξ-OH)]T[ξPro(3ξ-OH,4ξ-Me)]; lactam 2-C; configuration not given here)",15,–,–
"CCCCCCCCCCCC(=O)Nc1ccc(CC(=O)NC2CC(O)C(O)NC(=O)C3C(O)C(C)CN3C(=O)C(C(C)O)NC(=O)C(C(O)C(O)c3ccc(O)cc3)NC(=O)C3CC(O)CN3C(=O)C(C(C)O)NC2=O)cc1 (stereo not drawn) (Lauroyl-[X6][ξOrn(4,5-diOH)]T[Hyp][ξhTyr(βξ-OH,γξ-OH)]T[ξPro(3ξ-OH,4ξ-Me)]; lactam 2-C; configuration not given here)",5,–,–
"CCCCCCCCOc1ccc(CC(=O)NC2CC(O)C(O)NC(=O)C3C(O)C(C)CN3C(=O)C(C(C)O)NC(=O)C(C(O)C(O)c3ccc(O)cc3)NC(=O)C3CC(O)CN3C(=O)C(C(C)O)NC2=O)cc1 (stereo not drawn) (X3-[ξOrn(4,5-diOH)]T[Hyp][ξhTyr(βξ-OH,γξ-OH)]T[ξPro(3ξ-OH,4ξ-Me)]; lactam 1-C; configuration not given here)",30,–,–
"CCCCCOc1ccc(CCC(=O)NC2CC(O)C(O)NC(=O)C3C(O)C(C)CN3C(=O)C(C(C)O)NC(=O)C(C(O)C(O)c3ccc(O)cc3)NC(=O)C3CC(O)CN3C(=O)C(C(C)O)NC2=O)cc1 (stereo not drawn) (X4-[ξOrn(4,5-diOH)]T[Hyp][ξhTyr(βξ-OH,γξ-OH)]T[ξPro(3ξ-OH,4ξ-Me)]; lactam 1-C; configuration not given here)",12,–,–
"CCCCCCCOc1ccc(CCC(=O)NC2CC(O)C(O)NC(=O)C3C(O)C(C)CN3C(=O)C(C(C)O)NC(=O)C(C(O)C(O)c3ccc(O)cc3)NC(=O)C3CC(O)CN3C(=O)C(C(C)O)NC2=O)cc1 (stereo not drawn) (X5-[ξOrn(4,5-diOH)]T[Hyp][ξhTyr(βξ-OH,γξ-OH)]T[ξPro(3ξ-OH,4ξ-Me)]; lactam 1-C; configuration not given here)",30,–,–
"CCCCCCCCCCCC(=O)Nc1ccc(C(=O)NC2CC(O)C(O)NC(=O)C3C(O)C(C)CN3C(=O)C(C(C)O)NC(=O)C(C(O)C(O)c3ccc(O)cc3)NC(=O)C3CC(O)CN3C(=O)C(C(C)O)NC2=O)cc1 (stereo not drawn) ({Lauroyl-4Abz}-[ξOrn(4,5-diOH)]T[Hyp][ξhTyr(βξ-OH,γξ-OH)]T[ξPro(3ξ-OH,4ξ-Me)]; lactam 1-C; configuration not given here)",–,substrates,–
"CCN1C(=O)C=CC1=O [N-ethylmaleimide (NEM), N-ethylmaleimide]",–,–,enhancement of the rate of conversion of ECB to ECB nucleus (purified deacylase): 6-7 fold
"CCCCCCCCCCCCCCCC(=O)NC1CC(O)C(O)NC(=O)C2C(O)C(C)CN2C(=O)C(C(C)O)NC(=O)C(C(O)C(O)c2ccc(O)cc2)NC(=O)C2CC(O)CN2C(=O)C(C(C)O)NC1=O (stereo not drawn) [aculeacin] (Palmitoyl-[ξOrn(4,5-diOH)]T[Hyp][ξhTyr(βξ-OH,γξ-OH)]T[ξPro(3ξ-OH,4ξ-Me)]; lactam 1-C; configuration not given here)",–,deacylates,–
"CCCCCC=CCC=CCCCCCCCC(=O)NC1CC(O)C(O)NC(=O)C2C(O)C(C)CN2C(=O)C(C(C)O)NC(=O)C(C(O)C(O)c2ccc(O)cc2)NC(=O)C2CC(O)CN2C(=O)C(C(C)O)NC1=O (stereo not drawn) [echinocandin B] (X1-[ξOrn(4,5-diOH)]T[Hyp][ξhTyr(βξ-OH,γξ-OH)]T[ξPro(3ξ-OH,4ξ-Me)]; lactam 1-C; configuration not given here)",100,deacylates,ratio of ECB nucleus formed to ECB disappearance (reaction stoichiometry): about 52.4%; Vmax for the ECB reaction (purified enzyme): 10 to 11 µmol/min/mg
Daptomycin,–,cleaves the fatty acid side chain,–
